Structures are written as SMILES. pIC50: −log10 of the molar value.

The test concerns CHO-K1 (Chinese hamster ovary cell line). Briefly: Cytotoxicity (MTT), CHO-K1 cell line. It counts as cell-based. Conditions: Cricetulus griseus, CHO-K1, 120 h, 5 d incubation. The procedure:
CHO-K1 cells were obtained from the DSMZ and were cultured under conditions recommended by the depositor. Cells were seeded at 6×10^3 cells/well of 96-well plates in 180 μl complete medium and treated with compounds in serial dilution after 2 h of equilibration. Each sample was tested in duplicate as well as the internal DMSO control. After 5 d incubation, 20 μl of 5 mg/ml MTT (thiazolyl blue tetrazolium bromide) in PBS was added per well and it was further incubated for 2 h at 37° C. The medium was then discarded and cells were washed with 100 μl PBS before adding 100 μl 2-propanol/10 N HCl (250:1) in order to dissolve formazan granules. The absorbance at 570 nm was measured using a microplate reader (Tecan Infinite M200Pro), and cell viability was expressed as percentage relative to the respective […] control.

Compound `COC(C(N)=O)C(NC(=O)c1ccc(NC(=O)c2ccc([N+](=O)[O-])cc2)cc1)C(=O)Nc1ccc(C(=O)Nc2ccc(C(=O)Nc3ccc(C(=O)O)cc3OC(C)C)c(O)c2OC(C)C)cc1` (stereo not shown) [Cys 919-2] had a pIC50 of about 4.30.

As usually defined, the pIC50 is −log10 of the IC50, conventionally taken in molar units.

The values are drawn from US10519099B2, “Cystobactamides” (priority 2014, dated 2019).
